The results in this text go back to patent US20210238170A1, “5,5-Difluoro- and 5-Fluoro-5-Methyl-C-Glycoside Derivatives Useful As Dual SGLT1 / SGLT2 Modulators” (Janssen Pharmaceutica NV, priority 2018, published 2021).

pIC50: −log10 of the molar value.

By pIC50 is commonly meant the negative decadic logarithm of the IC50, by convention in mol/L.

Test [1] has as its target T1, human SGLT1 (Homo sapiens, UniProt P13866).
T1 construct: expressed in transfected cells
T1 sequence (P13866 1-664): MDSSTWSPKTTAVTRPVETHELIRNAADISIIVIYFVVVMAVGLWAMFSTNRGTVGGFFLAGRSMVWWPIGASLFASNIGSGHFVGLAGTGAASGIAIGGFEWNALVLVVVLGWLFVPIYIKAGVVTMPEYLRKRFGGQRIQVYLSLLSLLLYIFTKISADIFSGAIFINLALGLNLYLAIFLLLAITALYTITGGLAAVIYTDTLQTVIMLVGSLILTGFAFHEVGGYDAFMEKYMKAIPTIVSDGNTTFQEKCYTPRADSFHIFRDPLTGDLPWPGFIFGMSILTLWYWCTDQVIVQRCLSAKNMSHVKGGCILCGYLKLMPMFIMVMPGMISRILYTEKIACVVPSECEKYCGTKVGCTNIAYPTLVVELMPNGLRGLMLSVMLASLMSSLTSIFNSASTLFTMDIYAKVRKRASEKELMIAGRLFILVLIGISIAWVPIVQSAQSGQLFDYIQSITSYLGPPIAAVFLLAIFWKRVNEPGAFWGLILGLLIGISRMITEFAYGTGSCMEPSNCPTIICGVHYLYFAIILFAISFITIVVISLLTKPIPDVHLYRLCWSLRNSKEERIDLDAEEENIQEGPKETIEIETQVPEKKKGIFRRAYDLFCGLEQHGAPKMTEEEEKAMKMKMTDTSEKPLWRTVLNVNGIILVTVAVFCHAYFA
Put plainly: SGLT1 in vitro assay: Na-dependent 14C-AMG uptake in CHO-K1 cells stably expressing human SGLT1. The class given is cell-based. To be noted: CHO-K1 cells stably expressing human SGLT1, 14C-AMG uptake; for inhibition at 0.3 µM: read-out: SGLT1 % Inh @ 0.3 μM; for pIC50: compounds of formula (I) where R0 is fluoro. In short, it runs like this: (§1)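 CHO-K1 cells stably expressing human SGLT1 or SGLT2, induced with 10 mM Na-butyrate for 24 h. Compounds (0.001–10 μM) in Na+-containing HEPES/Tris buffer pH 7.4 were applied for 10 min, then 14C-AMG ([…]) for 2 h at 37°C; Na-dependent uptake read by scintillation; %-inhibition or IC50.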

Test [2] has as its target T2, human SGLT2 (Homo sapiens, UniProt P31639).
T2 construct: expressed in transfected cells
T2 sequence (P31639 1-672): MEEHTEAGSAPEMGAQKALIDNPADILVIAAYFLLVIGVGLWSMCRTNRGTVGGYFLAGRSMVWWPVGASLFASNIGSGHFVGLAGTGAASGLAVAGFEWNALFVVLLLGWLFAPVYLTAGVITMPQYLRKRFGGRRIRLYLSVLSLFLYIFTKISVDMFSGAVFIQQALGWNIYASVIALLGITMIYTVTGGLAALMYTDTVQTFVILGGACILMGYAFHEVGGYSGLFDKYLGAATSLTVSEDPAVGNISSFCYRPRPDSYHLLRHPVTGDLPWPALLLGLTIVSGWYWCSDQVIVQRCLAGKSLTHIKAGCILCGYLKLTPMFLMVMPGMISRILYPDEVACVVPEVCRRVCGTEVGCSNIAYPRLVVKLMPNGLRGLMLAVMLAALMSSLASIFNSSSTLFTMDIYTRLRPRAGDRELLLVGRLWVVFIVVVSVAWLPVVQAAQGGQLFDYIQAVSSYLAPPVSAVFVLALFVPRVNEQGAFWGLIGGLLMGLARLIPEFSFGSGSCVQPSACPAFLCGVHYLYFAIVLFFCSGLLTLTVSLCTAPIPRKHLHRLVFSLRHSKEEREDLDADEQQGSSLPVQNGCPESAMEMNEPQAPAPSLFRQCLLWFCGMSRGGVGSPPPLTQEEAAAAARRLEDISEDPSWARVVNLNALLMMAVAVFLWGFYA
Put plainly: SGLT2 in vitro assay: Na-dependent 14C-AMG uptake in CHO-K1 cells stably expressing human SGLT2. The class given is cell-based. Particulars: CHO-K1 cells stably expressing human SGLT2, 14C-AMG uptake; for inhibition at 0.3 µM: read-out: SGLT2 % Inh @ 0.3 μM; for pIC50: compounds of formula (I) where R0 is fluoro. The gist of the method: as §1

Regarding `Cc1c(Cc2ccc3c(c2)CCCO3)cc([C@@H]2O[C@H](CO)C(F)(F)[C@H](O)[C@H]2O)c2c1CCO2` [Compound 103], in test [1], the “SGLT1 % Inh @ 0.3 μM” value was 26.3%. Moreover, in test [2], the “SGLT2 % Inh @ 0.3 μM” value was 94.7%.

For the molecule `CCc1cc(O)c([C@@H]2O[C@H](CO)C(F)(F)[C@H](O)[C@H]2O)cc1Cc1ccc(OC(F)(F)F)cc1` [Compound 104], in test [1], the “SGLT1 % Inh @ 0.3 μM” value was found to be 39.2%. Besides, the “SGLT2 % Inh @ 0.3 μM” value in test [2] came to 82.6%.

As for `OC[C@H]1O[C@@H](c2cc(Cc3ccc(OC(F)(F)F)cc3)c(Cl)cc2O)[C@H](O)[C@@H](O)C1(F)F` [Compound 105], in test [1], the “SGLT1 % Inh @ 0.3 μM” value was 38.9%. For the same molecule, the “SGLT2 % Inh @ 0.3 μM” value in test [2] was determined as 91.8%.

Turning to `COc1cc(Cl)c(Cc2ccc(OC(F)(F)F)cc2)cc1[C@@H]1O[C@H](CO)C(F)(F)[C@H](O)[C@H]1O` [Compound 106], in test [1], the “SGLT1 % Inh @ 0.3 μM” value is given as 29.5%. The “SGLT2 % Inh @ 0.3 μM” value in test [2] is on record as 92.5%.

For the molecule `COc1ccc(Cc2cc([C@@H]3O[C@H](CO)C(F)(F)[C@H](O)[C@H]3O)c(O)cc2C)cc1` [Compound 108, (2S,3R,4R,6R)-5,5-difluoro-2-[2-hydroxy-5-[(4-methoxyphenyl)methyl]-4-methyl-phenyl]-6-(hydroxymethyl)tetrahydropyran-3,4-diol], the inhibition at 0.3 µM was found to be 66.6% in test [1] and 94.4% in test [2]. In addition, the pIC50 in test [1] is 7.15; in test [2] it was 8.80.

Consider `CCc1cc(OC)c([C@@H]2O[C@H](CO)C(F)(F)[C@H](O)[C@H]2O)cc1Cc1ccc(OC(F)(F)F)cc1` [Compound 109], for which, in test [1], the “SGLT1 % Inh @ 0.3 μM” value is on record as 27.4%. For the same molecule, in test [2], the “SGLT2 % Inh @ 0.3 μM” value is recorded as 70.5%.

Regarding `Cc1cc(O)c([C@@H]2O[C@H](CO)C(F)(F)[C@H](O)[C@H]2O)cc1Cc1ccc(Cl)s1` [Compound 110], in test [1], the inhibition at 0.3 µM was determined as 75% and the pIC50 is 7.02. For the same molecule, in test [2], the inhibition at 0.3 µM was determined as 82.4% and the pIC50 was 8.24.

Regarding `OC[C@H]1O[C@@H](c2cc(Cc3ccc4c(c3)OCC4)c(Cl)cc2O)[C@H](O)[C@@H](O)C1(F)F` [Compound 111, (2S,3R,4R,6R)-2-(4-chloro-5-((2,3-dihydrobenzofuran-6-yl)methyl)-2-hydroxyphenyl)-5,5-difluoro-6-(hydroxymethyl)-tetrahydro-2H-pyran-3,4-diol], the inhibition at 0.3 µM in test [1] was 84%; in test [2] it was 85.2%. Moreover, the pIC50 was 7.24 in test [1] and 9.05 in test [2].

As to `COc1cc(C)c(Cc2ccc(Cl)s2)cc1[C@@H]1O[C@H](CO)C(F)(F)[C@H](O)[C@H]1O` [Compound 112], the results for the inhibition at 0.3 µM in test [1] and in test [2] were 43.5% and 81.1%, respectively. The pIC50 in test [1] is 5.99; in test [2] it was 8.35.

As to `OC[C@H]1O[C@@H](c2cc(Cc3ccc4c(c3)CCO4)c(Cl)c3c2OCC3)[C@H](O)[C@@H](O)C1(F)F` [Compound 114], the “SGLT1 % Inh @ 0.3 μM” value in test [1] is listed as 36.8%. Further, the “SGLT2 % Inh @ 0.3 μM” value in test [2] was found to be 80.6%.

For the molecule `COc1cc(Cl)c(Cc2ccc3c(c2)OCC3)cc1[C@@H]1O[C@H](CO)C(F)(F)[C@H](O)[C@H]1O` [Compound 115], in test [1], the inhibition at 0.3 µM stood at 50.8% and the pIC50 is 6.49. In test [2], the inhibition at 0.3 µM is 86.8% and the pIC50 was 9.30.

In the case of `OC[C@H]1O[C@@H](c2cc(Cc3ccc(OCF)cc3)c(Cl)cc2O)[C@H](O)[C@@H](O)C1(F)F` [Compound 116, (2S,3R,4R,6R)-2-(4-chloro-5-{[4-(fluoromethoxy)phenyl]methyl}-2-hydroxyphenyl)-5,5-difluoro-6-(hydroxymethyl)oxane-3,4-diol], in test [1], the inhibition at 0.3 µM was 65.2% and the pIC50 is 6.91. Also, in test [2], the inhibition at 0.3 µM is 85.5% and the pIC50 was 8.35.

Take `COc1cc(O)c([C@@H]2O[C@H](CO)C(F)(F)[C@H](O)[C@H]2O)cc1Cc1ccc(OC(F)(F)F)cc1` [Compound 119]: the “SGLT1 % Inh @ 0.3 μM” value in test [1] stood at 24.9%. Also, in test [2], the “SGLT2 % Inh @ 0.3 μM” value was found to be 79.0%.

With `COc1cc(OC)c([C@@H]2O[C@H](CO)C(F)(F)[C@H](O)[C@H]2O)cc1Cc1ccc(OC(F)(F)F)cc1` [Compound 121], the “SGLT1 % Inh @ 0.3 μM” value in test [1] is listed as 20.2%. Further, the “SGLT2 % Inh @ 0.3 μM” value in test [2] turned out to be 63.6%.

As to `COc1cc(C)c(Cc2ccc(C3CC3)cc2)cc1[C@@H]1O[C@H](CO)C(F)(F)[C@H](O)[C@H]1O` [Compound 123], in test [1], the “SGLT1 % Inh @ 0.3 μM” value is on record as 30.6%. Further, in test [2], the “SGLT2 % Inh @ 0.3 μM” value stood at 89.3%.

As to `Cc1cc(O)c([C@@H]2O[C@H](CO)C(F)(F)[C@H](O)[C@H]2O)cc1Cc1ccc(C2CC2)cc1` [Compound 124, (2S,3R,4R,6R)-2-(5-(4-cyclopropylbenzyl)-2-hydroxy-4-methylphenyl)-5,5-difluoro-6-(hydroxymethyl)-tetrahydro-2H-pyran-3,4-diol], the inhibition at 0.3 µM in test [1] worked out at 75.5%; in test [2] it was 90.3%. The pIC50 in test [1] was 6.80; in test [2], 9.00.

In the case of `OC[C@H]1O[C@@H](c2cc(Cc3ccc(OCF)cc3)c(Cl)cc2O)[C@H](O)[C@@H](O)C1(F)F` [Compound 125], the “SGLT1 % Inh @ 0.3 μM” value in test [1] was found to be 32.9%. For the same molecule, the “SGLT2 % Inh @ 0.3 μM” value in test [2] is reported as 90.2%.

As for `OC[C@H]1O[C@@H](c2cc(Cc3ccc4c(c3)CCCO4)c(Cl)c3c2OCC3)[C@H](O)[C@@H](O)C1(F)F` [Compound 126], the “SGLT1 % Inh @ 0.3 μM” value in test [1] is recorded as 28.7%. Further, in test [2], the “SGLT2 % Inh @ 0.3 μM” value is 87.1%.

As for `CCc1ccc(Cc2cc([C@@H]3O[C@H](CO)C(F)(F)[C@H](O)[C@H]3O)c(O)cc2Cl)cc1` [Compound 127, (2S,3R,4R,6R)-2-{4-chloro-5-[(4-ethylphenyl)methyl]-2-hydroxyphenyl}-5,5-difluoro-6-(hydroxymethyl)oxane-3,4-diol], in test [1], the inhibition at 0.3 µM is 67.6% and the pIC50 was 6.85. Moreover, in test [2], the inhibition at 0.3 µM worked out at 89.2% and the pIC50 was 8.59.

As to `CCc1ccc(Cc2cc([C@@H]3O[C@H](CO)C(F)(F)[C@H](O)[C@H]3O)c(O)cc2CC)cc1` [Compound 128], the inhibition at 0.3 µM in test [1] stood at 79.5%; in test [2], 88.7%. The figures for the pIC50 in test [1] and in test [2] were 6.92 and 8.11, respectively.

In the case of `CCc1ccc(Cc2cc([C@@H]3O[C@H](CO)C(F)(F)[C@H](O)[C@H]3O)c(OC)cc2C)cc1` [Compound 129], in test [1], the “SGLT1 % Inh @ 0.3 μM” value is recorded as 16.4%. The “SGLT2 % Inh @ 0.3 μM” value in test [2] came out at 87.1%.

Take `CCc1ccc(Cc2cc([C@@H]3O[C@H](CO)C(F)(F)[C@H](O)[C@H]3O)c(OC)cc2CC)cc1` [Compound 130]: the “SGLT1 % Inh @ 0.3 μM” value in test [1] is reported as 22.9%. In test [2], the “SGLT2 % Inh @ 0.3 μM” value is listed as 83.7%.

On to `CCc1ccc(Cc2cc([C@@H]3O[C@H](CO)C(F)(F)[C@H](O)[C@H]3O)c(O)cc2C)cc1` [Compound 131, (2S,3R,4R,6R)-2-(5-(4-ethylbenzyl)-2-hydroxy-4-methylphenyl)-5,5-difluoro-6-(hydroxymethyl)tetrahydro-2H-pyran-3,4-diol], for which, in test [1], the inhibition at 0.3 µM is 64.4% and the pIC50 was 7.02. In test [2], the inhibition at 0.3 µM turned out to be 88.6% and the pIC50 was 8.57.

As for `OC[C@H]1O[C@@H](c2cc(Cc3ccc4c(c3)SCCO4)c(Cl)c3c2OCC3)[C@H](O)[C@@H](O)C1(F)F` [Compound 132], in test [1], the inhibition at 0.3 µM worked out at 40.7% and the pIC50 was 6.37. Further, in test [2], the inhibition at 0.3 µM was 83.9% and the pIC50 is 8.35.
